Tested on: 966289-007-R4-J1-PDC complex spheroid viability
Assay: Anticancer human tumor 966289-007-R4-J1-PDC patient-derived pancreatic adenocarcinoma cell line growth inhibition [RAS]
Details: for IC50: curve of first compound; for viability, T/C: stronger effect = lower value
How it was run: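 Multi-cell-type spheroids: tumor cells plus HUVEC endothelial cells and mesenchymal stem cells. RAS-pathway inhibitors were combined with targeted agents, each dosed in half-log steps down from clinical Cmax, or from 10 microM when Cmax was unknown.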
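Note: spheroids exposed to agents for one week before readout.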
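Throughout, for viability, T/C: percent viability relative to DMSO vehicle control wells as 100%.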

CC1(O)CCCC1n1c(=O)c(C(F)F)cc2cnc(NC3CCN(S(C)(=O)=O)CC3)nc21 (centres undefined) + C#Cc1c(F)ccc2cc(O)cc(-c3ncc4c(N5CC6CCC(C5)N6)nc(OCC56CCCN5CC(F)C6)nc4c3F)c12
IC50 (second compound 0.0316 µM): 142 nM | IC50 (second compound 0.1 µM): 181 nM | IC50 (second compound 0.316 µM): 232 nM | IC50 (second compound 1 µM): 220 nM | IC50 (second compound 3.16 µM): 221 nM | IC50 (second compound 10 µM): 115 nM | viability, T/C (second compound 0.0316 µM, first compound 0.0316 µM): 138% | viability, T/C (second compound 0.0316 µM, first compound 0.1 µM): 57% | viability, T/C (second compound 0.0316 µM, first compound 0.316 µM): 28.4% | viability, T/C (second compound 0.0316 µM, first compound 1 µM): 33.5% | viability, T/C (second compound 0.0316 µM, first compound 3.16 µM): 32.1% | viability, T/C (second compound 0.0316 µM, first compound 10 µM): 5.74% | viability, T/C (second compound 0.1 µM, first compound 0.0316 µM): 124% | viability, T/C (second compound 0.1 µM, first compound 0.1 µM): 70.9% | viability, T/C (second compound 0.1 µM, first compound 0.316 µM): 26.7% | viability, T/C (second compound 0.1 µM, first compound 1 µM): 33.5% | viability, T/C (second compound 0.1 µM, first compound 3.16 µM): 27.7% | viability, T/C (second compound 0.1 µM, first compound 10 µM): 5.83% | viability, T/C (second compound 0.316 µM, first compound 0.0316 µM): 128% | viability, T/C (second compound 0.316 µM, first compound 0.1 µM): 71.8% | viability, T/C (second compound 0.316 µM, first compound 0.316 µM): 33.9% | viability, T/C (second compound 0.316 µM, first compound 1 µM): 35.5% | viability, T/C (second compound 0.316 µM, first compound 3.16 µM): 31.4% | viability, T/C (second compound 0.316 µM, first compound 10 µM): 5.81% | viability, T/C (second compound 1 µM, first compound 0.0316 µM): 116% | viability, T/C (second compound 1 µM, first compound 0.1 µM): 72.4% | viability, T/C (second compound 1 µM, first compound 0.316 µM): 30.1% | viability, T/C (second compound 1 µM, first compound 1 µM): 33% | viability, T/C (second compound 1 µM, first compound 3.16 µM): 33.2% | viability, T/C (second compound 1 µM, first compound 10 µM): 5.07% | viability, T/C (second compound 3.16 µM, first compound 0.0316 µM): 128% | viability, T/C (second compound 3.16 µM, first compound 0.1 µM): 73.5% | viability, T/C (second compound 3.16 µM, first compound 0.316 µM): 30.6% | viability, T/C (second compound 3.16 µM, first compound 1 µM): 32.5% | viability, T/C (second compound 3.16 µM, first compound 3.16 µM): 33.3% | viability, T/C (second compound 3.16 µM, first compound 10 µM): 5.29% | viability, T/C (second compound 10 µM, first compound 0.0316 µM): 106% | viability, T/C (second compound 10 µM, first compound 0.1 µM): 47.8% | viability, T/C (second compound 10 µM, first compound 0.316 µM): 33% | viability, T/C (second compound 10 µM, first compound 1 µM): 30.2% | viability, T/C (second compound 10 µM, first compound 3.16 µM): 38.3% | viability, T/C (second compound 10 µM, first compound 10 µM): 0.93%

NC1c2ccccc2OC12CCN(c1cnc3c(N4CCCc5ncccc54)n[nH]c3n1)CC2 (centres undefined) + CCn1c(-c2cccnc2C(C)OC)c2c3cc(ccc31)N1CCOC(CC(NC(=O)C(C(C)C)N(C)C(=O)C3(F)CCN(C(=O)C#CC(C)(C)N(C)C)CC3)C(=O)N3CCCC(N3)C(=O)OCC(C)(C)C2)C1
IC50 (second compound 0.000949 µM): > 10000 nM | IC50 (second compound 0.003 µM): > 10000 nM | IC50 (second compound 0.00949 µM): > 10000 nM | IC50 (second compound 0.03 µM): > 10000 nM | IC50 (second compound 0.0949 µM): > 10000 nM | IC50 (second compound 0.3 µM): > 10000 nM | viability, T/C (second compound 0.000949 µM, first compound 0.0316 µM): 113% | viability, T/C (second compound 0.000949 µM, first compound 0.1 µM): 81.5% | viability, T/C (second compound 0.000949 µM, first compound 0.316 µM): 109% | viability, T/C (second compound 0.000949 µM, first compound 1 µM): 69.6% | viability, T/C (second compound 0.000949 µM, first compound 3.16 µM): 82.1% | viability, T/C (second compound 0.000949 µM, first compound 10 µM): 74.5% | viability, T/C (second compound 0.003 µM, first compound 0.0316 µM): 113% | viability, T/C (second compound 0.003 µM, first compound 0.1 µM): 59% | viability, T/C (second compound 0.003 µM, first compound 0.316 µM): 102% | viability, T/C (second compound 0.003 µM, first compound 1 µM): 63.4% | viability, T/C (second compound 0.003 µM, first compound 3.16 µM): 91.9% | viability, T/C (second compound 0.003 µM, first compound 10 µM): 96.9% | viability, T/C (second compound 0.00949 µM, first compound 0.0316 µM): 92.4% | viability, T/C (second compound 0.00949 µM, first compound 0.1 µM): 76.4% | viability, T/C (second compound 0.00949 µM, first compound 0.316 µM): 77.6% | viability, T/C (second compound 0.00949 µM, first compound 1 µM): 88.4% | viability, T/C (second compound 0.00949 µM, first compound 3.16 µM): 104% | viability, T/C (second compound 0.00949 µM, first compound 10 µM): 93.2% | viability, T/C (second compound 0.03 µM, first compound 0.0316 µM): 62.7% | viability, T/C (second compound 0.03 µM, first compound 0.1 µM): 73.7% | viability, T/C (second compound 0.03 µM, first compound 0.316 µM): 96.9% | viability, T/C (second compound 0.03 µM, first compound 1 µM): 74.3% | viability, T/C (second compound 0.03 µM, first compound 3.16 µM): 104% | viability, T/C (second compound 0.03 µM, first compound 10 µM): 94.8% | viability, T/C (second compound 0.0949 µM, first compound 0.0316 µM): 80.9% | viability, T/C (second compound 0.0949 µM, first compound 0.1 µM): 91.1% | viability, T/C (second compound 0.0949 µM, first compound 0.316 µM): 128% | viability, T/C (second compound 0.0949 µM, first compound 1 µM): 91.8% | viability, T/C (second compound 0.0949 µM, first compound 3.16 µM): 117% | viability, T/C (second compound 0.0949 µM, first compound 10 µM): 107% | viability, T/C (second compound 0.3 µM, first compound 0.0316 µM): 94.4% | viability, T/C (second compound 0.3 µM, first compound 0.1 µM): 89.3% | viability, T/C (second compound 0.3 µM, first compound 0.316 µM): 96% | viability, T/C (second compound 0.3 µM, first compound 1 µM): 103% | viability, T/C (second compound 0.3 µM, first compound 3.16 µM): 147% | viability, T/C (second compound 0.3 µM, first compound 10 µM): 91.9%

Source: PubChem BioAssay AID2060897 (Molecular Pharmacology Branch, DTP, NCI, 2025)
